Key:
HL-60 cells = assay: HL-60 responses to selected compounds at a range of concentrations; assay type: cell-based, human
Protocol: In this Example, methods for testing unattached cells for their ability to use various concentrations of selected carbon sources are described. The carbon sources used in this Example were identified by the methods disclosed in Example 27. Similarly, HL-60 cells were cultured as described in Example 27.
After washing, HL-60 cells were resuspended in DME-R. An aliquot of the cell suspension was counted by trypan blue exclusion and the cell density was adjusted to 6.67×10^5/mL. Fifty μL of DME-R were added to each well of the appropriate number of half area, 96-well plates, followed by 23 μL of the appropriate dilution of each test energy source. Stocks of 133 mM of each test chemical were prepared in tissue culture grade water, sterile filtered, and dilutions were prepared in a master plate so that, upon dilution in a total volume of 150 μL, the final concentrations would be 0.033 to 20 mM. Negative control wells received 23 μL of tissue culture grade water. The cells were plated at a volume of 75 μL/well, giving a final cell density of 5×10^4/well. For each plate containing energy sources and cells, a second, control plate containing only energy sources was prepared. Plates were incubated at 5% CO2, 90-100% humidity, and 37° C. for 24 hours prior to addition of the MTS/MPMS colorometric reagent (7.5 μL/well). The color formed in each well after an additional 24 hour incubation period, was measured on a plate reader at 490 nm with a reference wavelength of 650 nm. OD values from the control plate were subtracted from the OD values obtained with cells prior to normalizing the data to % negative control (cells without added energy source).

[1] = system: DMSO-differentiated HL-60 cells; assay: Energy use by DMSO-differentiated HL-60 cells; assay type: cell-based, human
Protocol: In this Example, methods for testing in vitro-differentiated cells for their ability to use multiple energy sources are described. Prior to differentiation, HL-60 cells were cultured as described in Example 27. DMSO-induced differentiation (Odani et al., Res. Commun. Mol. Pathol. Pharmacol. 108:381-391 [2000]; and Yamaguchi et al., Biol. Pharm. Bull. 20:943-947 [1997]) was accomplished by incubation of the cells in the presence of 1.25% DMSO for 3 days.
After washing, HL-60 cells were resuspended in DME-R. An aliquot of the cell suspension was counted by trypan blue exclusion and the cell density was adjusted to 6.67×10^5/mL. Fifty μL of DME-R were added to each well of the appropriate number of half area, 96-well plates, followed by 25 μL of the appropriate dilution of each test energy source. Stocks of 133 mM of each test chemical were prepared in tissue culture grade water, sterile filtered, and dilutions were prepared in a master plate so that, upon dilution into a half-area 96-well microtiter plate to a total well volume of 150 μL, the final concentrations would be 0.033 to 20 mM. Negative control wells received 25 μL of tissue culture grade water. The cells were plated at a volume of 75 μL/well, giving a final cell density of 5×10^4/well. For each plate containing energy sources and cells, a second, control plate containing only energy sources was prepared with the same total volume of liquid (148 μL/well). Plates were incubated at 5% CO2, 90-100% humidity, and 37° C. for 24 hours prior to addition of the MTS/MPMS calorimetric reagent (7.5 μL/well). The color formed in each well 24 hours after addition of the colorimetric reagent, was measured with a plate reader at 490 nm with a reference wavelength of 650 nm. OD values from the control plate were subtracted from the OD values obtained with cells prior to normalizing the data to % negative control (cells without added energy source).

SMILES: O=C(O)[C@@H]1C[C@@H](O)CN1 [hydroxy L-proline]
- response greater than the negative control (HL-60 cells; 0.033 to 20 mM, 24 h culture + 24 h color development): < 30%
- HL-60 Cell Responses to Selected Compounds from PM1 and PM2 (HL-60 cells; Conc. 0.03 mM): 125.0 % of negative control
- HL-60 Cell Responses to Selected Compounds from PM1 and PM2 (HL-60 cells; Conc. 0.10 mM): 122.8 % of negative control
- HL-60 Cell Responses to Selected Compounds from PM1 and PM2 (HL-60 cells; Conc. 0.33 mM): 121.5 % of negative control
- HL-60 Cell Responses to Selected Compounds from PM1 and PM2 (HL-60 cells; Conc. 1.00 mM): 128.4 % of negative control
- HL-60 Cell Responses to Selected Compounds from PM1 and PM2 (HL-60 cells; Conc. 3.3 mM): 129.6 % of negative control
- HL-60 Cell Responses to Selected Compounds from PM1 and PM2 (HL-60 cells; Conc. 10 mM): 121.5 % of negative control
- HL-60 Cell Responses to Selected Compounds from PM1 and PM2 (HL-60 cells; Conc. 15 mM): 111.8 % of negative control
- HL-60 Cell Responses to Selected Compounds from PM1 and PM2 (HL-60 cells; Conc. 20 mM): 99.2 % of negative control
- Energy Use by DMSO-Differentiated HL-60 Cells ([1]; Conc. 0.03 mM): 102.8 % of negative control
- Energy Use by DMSO-Differentiated HL-60 Cells ([1]; Conc. 0.10 mM): 110.5 % of negative control
- Energy Use by DMSO-Differentiated HL-60 Cells ([1]; Conc. 0.33 mM): 120.5 % of negative control
- Energy Use by DMSO-Differentiated HL-60 Cells ([1]; Conc. 1.00 mM): 121.9 % of negative control
- Energy Use by DMSO-Differentiated HL-60 Cells ([1]; Conc. 3.3 mM): 129.0 % of negative control
- Energy Use by DMSO-Differentiated HL-60 Cells ([1]; Conc. 10 mM): 126.9 % of negative control
- Energy Use by DMSO-Differentiated HL-60 Cells ([1]; Conc. 15 mM): 109.0 % of negative control
- Energy Use by DMSO-Differentiated HL-60 Cells ([1]; Conc. 20 mM): 92.0 % of negative control

SMILES: COC(=O)CCC(=O)O [mono methyl succinate]
- activity at 30 µM (HL-60 cells; Homo sapiens, HL-60, Conc. 0.03 mM, read-out: HL-60 Cell Responses to Selected Compounds from PM1 and PM2): 118%
- activity at 100 µM (HL-60 cells; Homo sapiens, HL-60, Conc. 0.10 mM, read-out: HL-60 Cell Responses to Selected Compounds from PM1 and PM2): 130%
- activity at 330 µM (HL-60 cells; Homo sapiens, HL-60, Conc. 0.33 mM, read-out: HL-60 Cell Responses to Selected Compounds from PM1 and PM2): 133%
- activity at 1000 µM (HL-60 cells; Homo sapiens, HL-60, Conc. 1.00 mM, read-out: HL-60 Cell Responses to Selected Compounds from PM1 and PM2): 142%
- activity at 3300 µM (HL-60 cells; Homo sapiens, HL-60, Conc. 3.3 mM, read-out: HL-60 Cell Responses to Selected Compounds from PM1 and PM2): 167%
- activity at 10000 µM (HL-60 cells; Homo sapiens, HL-60, Conc. 10 mM, read-out: HL-60 Cell Responses to Selected Compounds from PM1 and PM2): 173%
- activity at 15000 µM (HL-60 cells; Homo sapiens, HL-60, Conc. 15 mM, read-out: HL-60 Cell Responses to Selected Compounds from PM1 and PM2): 139%
- activity at 20000 µM (HL-60 cells; Homo sapiens, HL-60, Conc. 20 mM, read-out: HL-60 Cell Responses to Selected Compounds from PM1 and PM2): 93.3%
- activity at 30 µM ([1]; Homo sapiens, HL-60, 24 h, Conc. 0.03 mM, read-out: Energy Use by DMSO-Differentiated HL-60 Cells): 104%
- activity at 100 µM ([1]; Homo sapiens, HL-60, 24 h, Conc. 0.10 mM, read-out: Energy Use by DMSO-Differentiated HL-60 Cells): 93.4%
- activity at 330 µM ([1]; Homo sapiens, HL-60, 24 h, Conc. 0.33 mM, read-out: Energy Use by DMSO-Differentiated HL-60 Cells): 124%
- activity at 1000 µM ([1]; Homo sapiens, HL-60, 24 h, Conc. 1.00 mM, read-out: Energy Use by DMSO-Differentiated HL-60 Cells): 142%
- activity at 3300 µM ([1]; Homo sapiens, HL-60, 24 h, Conc. 3.3 mM, read-out: Energy Use by DMSO-Differentiated HL-60 Cells): 184%
- activity at 10000 µM ([1]; Homo sapiens, HL-60, 24 h, Conc. 10 mM, read-out: Energy Use by DMSO-Differentiated HL-60 Cells): 194%
- activity at 15000 µM ([1]; Homo sapiens, HL-60, 24 h, Conc. 15 mM, read-out: Energy Use by DMSO-Differentiated HL-60 Cells): 156%
- activity at 20000 µM ([1]; Homo sapiens, HL-60, 24 h, Conc. 20 mM, read-out: Energy Use by DMSO-Differentiated HL-60 Cells): 118%

From patent US9274101B2 (BIOLOG, Inc., priority 2001, dated 2016)
